From paper PMC6760013, “Synthesis and Inhibition Evaluation of New Benzyltetrahydroprotoberberine Alkaloids Designed as Acetylcholinesterase Inhibitors” (Frontiers in Chemistry, 2019)

Key:
[1] = biological target: T1, AChE from Electrophorus electricus (eelAChE) type VI-S (Electrophorus electricus, UniProt O42275); experiment: biochemical; details: for mechanism of inhibition: double-reciprocal (Lineweaver-Burk) plots; for IC50 / Ki: eelAChE-ICER; for IC50: 20 μL ACh stock 500 μM in 100 μL reaction mixture, non-linear regression; for Ki: ACh 10 to 150 μM, inhibitor 0, 10, 50 and 75 μM, Lineweaver-Burk replot, read-out: Ki (steady-state inhibition constant); for inhibition: pH 8, 10 μL of 1.0 mM compound stock in 100 μL reaction mixture, read-out: % Inhibition eelAChE-ICER
T1 construct: purchased Sigma-Aldrich type VI-S
Protocol: AChE from Electrophorus electricus (type VI-S) was immobilized in a fused-silica capillary tube (eelAChE-ICER) according to a previously reported protocol (Vanzolini et al., [2013]). An enzyme solution containing 2 units/mL eelAChE was used in the immobilization procedure. The LC-MS system was set up for the eelAChE-ICER as previously described (Vanzolini et al., [2013]). The mobile phase (15 mM ammonium acetate solution, pH 8.0) was infused by pump 1 at a flow rate of 50 μL/min and pump 2 delivered acetonitrile after the eelAChE-ICER at a flow rate of 50 μL/min. IT-MS parameters were: 3,713 V capillary voltage, 500 V end plate voltage, […] drying gas, 300°C drying temperature and 30 psi nebulizer. In addition, ACh ([M+H]^+ m/z 146) and Ch ([M+H]^+ m/z 104), were analyzed by MS operating in the manual MS^n mode under positive ionization (scan 50–550 m/z). Enzymatic activity was quantified using a Ch standard external calibration curve prepared in 15 mM ammonium acetate solution, pH 8.0 with the final concentration ranging from 5 to 350 μM. An aliquot (10 μL) of each solution was injected in triplicate into the system using an empty fused silica capillary. The calibration curve was obtained by plotting the Ch [M+H]^+ m/z 104 area against the injected Ch concentration.
Stock solutions of each compound were prepared in methanol at 1.0 mM. The enzymatic activity of eelAChE-ICER was measured in the presence and absence of each compound. Reactions mixtures were prepared by mixing 20 μL of ACh stock solution (350 μM, in 15mM ammonium acetate solution, pH 5.0) with 10 μL of methanol or stock solution of compounds (1.0 mM) and 70 μL ammonium acetate solution (15mM, pH 8.0). Each reaction mixture (10 μL) was injected into the LC-MS system. The percentage of inhibition (%I) was calculated by comparing the product peak area in the presence of tested compound with positive control (absence of inhibitors).
Final volumes were completed with 70 μL ammonium acetate solution (15mM, pH 8.0) and each reaction mixture (10 μL) was injected into the LC-MS system. The inhibition curve was obtained for each sample by plotting the percentage of inhibition vs. each corresponding inhibitor concentration, and the IC50 values were achieved by non-linear regression analysis using GraphPad Prism 5 software.
For this purpose, the eelAChE-ICER activity was evaluated under different concentrations of ACh (10 to 150 μM) and at the fixed concentration of derivative 1a and 1b (0, 10, 50, and 75 μM). Lineweaver-Burk plots were used to determine the action mechanism for the inhibitors.
A linear replot was obtained, and the division quotient between the linear and angular coefficients provided the Ki values.

[2] = system: AChE; design: method as in Loizzo et al., 2008; details: AChE inhibition; ref Loizzo et al., 2008; cited from earlier work
[3] = 20 μL ACh stock 350 μM, ammonium acetate 15 mM pH 8.0

T1 sequence (O42275 24-633): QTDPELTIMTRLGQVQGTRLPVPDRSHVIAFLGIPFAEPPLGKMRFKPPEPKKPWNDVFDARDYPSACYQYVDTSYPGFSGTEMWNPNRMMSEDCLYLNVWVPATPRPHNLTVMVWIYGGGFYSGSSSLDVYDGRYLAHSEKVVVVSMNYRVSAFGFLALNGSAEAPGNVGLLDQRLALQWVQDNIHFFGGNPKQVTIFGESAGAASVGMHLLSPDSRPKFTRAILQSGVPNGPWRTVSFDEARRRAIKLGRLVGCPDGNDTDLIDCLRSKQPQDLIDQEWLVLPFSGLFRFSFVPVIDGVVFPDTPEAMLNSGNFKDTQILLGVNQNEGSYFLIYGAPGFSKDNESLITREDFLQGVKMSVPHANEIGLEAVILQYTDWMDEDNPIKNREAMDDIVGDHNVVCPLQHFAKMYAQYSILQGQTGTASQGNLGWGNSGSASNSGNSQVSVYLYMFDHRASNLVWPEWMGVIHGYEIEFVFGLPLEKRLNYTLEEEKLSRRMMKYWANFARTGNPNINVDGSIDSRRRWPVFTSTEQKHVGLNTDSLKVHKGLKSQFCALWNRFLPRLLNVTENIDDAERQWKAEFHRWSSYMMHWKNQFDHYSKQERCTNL

Row | SMILES | inhibition [1, 3] [%] | IC50 [2] [µM] | also measured
1 | COc1cc2c(cc1O)[C@@H]1Cc3ccc(O)c(OC)c3C[N@+]1(Cc1ccccc1)CC2 [1a, (7R,13aS)-7-benzylstepholidine] | 90.1 ± 2.04 | – | mechanism of inhibition [1]: non-competitive; IC50 [1]: 40.6 ± 1 µM; Ki [1]: 11.6 µM
2 | COc1cc2c(cc1O)[C@@H]1Cc3ccc(O)c(OC)c3C[N@@+]1(Cc1ccccc1)CC2 [1b, (7S,13aS)-7-benzylstepholidine] | 90.5 ± 2.48 | – | mechanism of inhibition [1]: non-competitive; IC50 [1]: 51.9 ± 1 µM; Ki [1]: 4.7 µM
3 | COc1cc2c(cc1OCc1ccccc1)[C@@H]1Cc3ccc(O)c(OC)c3CN1CC2 [1c, (S)-2-O-benzylstepholidine] | 35.2 ± 5.02 | – | –
4 | COc1cc2c(cc1O)[C@@H]1Cc3ccc(OCc4ccccc4)c(OC)c3CN1CC2 [1d, (S)-10-O-benzylstepholidine] | 46.3 ± 5.45 | – | –
5 | COc1cc2c(cc1OCc1ccccc1)[C@@H]1Cc3ccc(OCc4ccccc4)c(OC)c3CN1CC2 [1e, (S)-O, O-dibenzylstepholidine] | 43.6 ± 2.54 | – | –
6 | COc1cc2c(cc1O)C1Cc3ccc(O)c(OC)c3C[N+]1(C)CC2 (stereo not shown) [N-methyl stepholidine] | – | 31.3 | –
7 | COc1cc2c(cc1O)[C@@H]1Cc3ccc(O)c(OC)c3CN1CC2 [Stepholidine, stepholidine, reference compound] | < 50 | > 100 | % Inhibition eelAChE-ICER ([1]; 10 μL of 1.0 mM compound stock in 100 μL reaction mixture, 20 μL ACh stock 350 μM, ammonium acetate 15 mM pH 8.0): 40.2 ± 1.65%
8 | COc1cc2c(cc1O)-c1cc3ccc(O)c(OC)c3c[n+]1CC2 [stepharanine] | – | 14.1 | –
